Measurements taken from ChEMBL document CHEMBL1201862, “PubChem BioAssay data set” (2004).
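All cell lines were grown in 96-well plates and treated with compound for 48 hours. At the GI50, growth is halved.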 Active and inactive are the calls of the source. No stated cut-off is given here; in the data, active = GI50 up to about 1.1 µM and inactive = higher.

Assays:
Assay in all cases: NCI anticancer screen, dose series, 48 h
[1] = tested on: T47D
[2] = tested on: HOP-62
[3] = tested on: CAKI-1
[4] = tested on: A498
[5] = tested on: HT-29
[6] = tested on: EKVX
[7] = tested on: K562
[8] = tested on: SK-OV-3
[9] = tested on: RPMI-8226
[10] = tested on: SN12C
[11] = tested on: HL-60
[12] = tested on: BT-549
[13] = tested on: SW-620
[14] = tested on: SNB-19
[15] = tested on: MDA-MB-435
[16] = tested on: OVCAR-3
[17] = tested on: NCI-H460
[18] = tested on: SK-MEL-2
[19] = tested on: CCRF-CEM

SMILES	GI50 [1]	GI50 [2]	GI50 [3]	GI50 [4]	GI50 [5]	GI50 [6]	GI50 [7]	GI50 [8]	GI50 [9]	GI50 [10]	GI50 [11]	GI50 [12]	GI50 [13]	GI50 [14]	GI50 [15]	GI50 [16]	GI50 [17]	GI50 [18]	GI50 [19]
CC(C)CC(NC=O)C(=O)NC(Cc1ccccc1)NC(=O)CNC(=O)C(C)NC(=O)C(N)Cc1ccc(O)cc1 (centres undefined)	> 100 µM (inactive)	> 100 µM (inactive)	> 100 µM (inactive)	64.6 µM (inactive)	> 100 µM (inactive)	> 100 µM (inactive)	> 100 µM (inactive)	> 100 µM (inactive)	> 100 µM (inactive)	> 100 µM (inactive)	> 100 µM (inactive)	> 100 µM (inactive)	> 100 µM (inactive)	> 100 µM (inactive)	> 100 µM (inactive)	> 100 µM (inactive)	> 100 µM (inactive)		
CCCCCCCCCC[C@H](O)[C@H]1CC[C@H]([C@H]2CC[C@H]([C@H](O)CC[C@H](O)CCCCCCC[C@@H](O)CC3=C[C@H](C)OC3=O)O2)O1	5.25 µM (inactive)	> 10 µM (inactive)	57 µM (inactive)	1.75 µM (inactive)	> 10 µM (inactive)	23.5 µM (inactive)	2.96 µM (inactive)		1.04 µM (active)	91.4 µM (inactive)	2.51 µM (inactive)	68.1 µM (inactive)	> 10 µM (inactive)	17 µM (inactive)	3.9 µM (inactive)	18.3 µM (inactive)	1.46 µM (inactive)	78 µM (inactive)	3.6 µM (inactive)
O=C(CN1c2ccccc2Sc2ccccc21)N1CCNCC1	71.9 µM (inactive)	> 100 µM (inactive)		34.6 µM (inactive)	> 100 µM (inactive)	> 100 µM (inactive)	> 100 µM (inactive)	> 100 µM (inactive)	> 100 µM (inactive)	> 100 µM (inactive)	> 100 µM (inactive)	> 100 µM (inactive)	> 100 µM (inactive)	> 100 µM (inactive)	> 100 µM (inactive)	> 100 µM (inactive)	> 100 µM (inactive)	> 100 µM (inactive)	99.8 µM (inactive)
C[C@]12Cc3cnn(-c4ccc(F)cc4)c3NC1CC[C@@H]1C2CC[C@@]2(C)C1CC[C@@H]2O (some centres undefined)	2.65 µM (inactive)	9.75 µM (inactive)	15.5 µM (inactive)	8.83 µM (inactive)	1.83 µM (inactive)	4.75 µM (inactive)	2.94 µM (inactive)	11.7 µM (inactive)		13.2 µM (inactive)	1.61 µM (inactive)	3.14 µM (inactive)	3.83 µM (inactive)	15.5 µM (inactive)	7.8 µM (inactive)	12.4 µM (inactive)	3.65 µM (inactive)		6.92 µM (inactive)
COc1cc2c(cc1O)CCN[C@@]21CS[C@H]2c3c(OC(C)=O)c(C)c4c(c3C(COC1=O)N1C2C2NC(Cc3cc(C)c(OC)c(O)c32)[C@@H]1O)OCO4 (some centres undefined)	< 0.01 µM (active)	< 0.01 µM (active)	< 0.01 µM (active)	< 0.01 µM (active)	< 0.01 µM (active)	< 0.01 µM (active)	< 0.01 µM (active)	< 0.01 µM (active)	< 0.01 µM (active)		< 0.01 µM (active)	< 0.01 µM (active)	< 0.01 µM (active)	< 0.01 µM (active)	< 0.01 µM (active)		< 0.01 µM (active)	< 0.01 µM (active)	< 0.01 µM (active)
CCOC(=O)/C(=C\NC(N)=S)C(=O)c1ccccc1	> 100 µM (inactive)	> 100 µM (inactive)	> 100 µM (inactive)	> 100 µM (inactive)	> 100 µM (inactive)	> 100 µM (inactive)		> 100 µM (inactive)		> 100 µM (inactive)	> 100 µM (inactive)	> 100 µM (inactive)	> 100 µM (inactive)	> 100 µM (inactive)	> 100 µM (inactive)	> 100 µM (inactive)	> 100 µM (inactive)	> 100 µM (inactive)	
C[C@H](C(=O)N1C(=O)O[C@@H](c2ccccc2)[C@H]1C)[C@H](c1ccccc1)N(Cc1ccccc1)OC(=O)c1ccccc1	15.8 µM (inactive)	18.9 µM (inactive)	77.1 µM (inactive)	> 100 µM (inactive)	26.4 µM (inactive)		31.6 µM (inactive)	38.8 µM (inactive)	21.7 µM (inactive)	80.7 µM (inactive)	29 µM (inactive)	38.3 µM (inactive)	70.3 µM (inactive)	35 µM (inactive)	49.4 µM (inactive)		30.4 µM (inactive)	22.1 µM (inactive)	37.2 µM (inactive)
COc1ccc(C(=O)CC(c2ccccc2)[C@H]2C(c3ccc(OC)cc3)=Nc3c(nc(SC)n(C)c3=O)NC2c2ccccc2)cc1 (some centres undefined)	> 100 µM (inactive)	> 100 µM (inactive)	> 100 µM (inactive)	> 100 µM (inactive)	> 100 µM (inactive)	> 100 µM (inactive)	> 100 µM (inactive)	> 100 µM (inactive)	> 100 µM (inactive)	> 100 µM (inactive)		> 100 µM (inactive)	> 100 µM (inactive)	> 100 µM (inactive)	> 100 µM (inactive)	> 100 µM (inactive)	> 100 µM (inactive)	> 100 µM (inactive)	> 100 µM (inactive)
CCc1n[nH]c(=O)n1N=C(c1ccccc1)c1ccccc1	> 100 µM (inactive)	> 100 µM (inactive)	> 100 µM (inactive)	> 100 µM (inactive)	> 100 µM (inactive)	32 µM (inactive)	> 100 µM (inactive)		> 100 µM (inactive)	> 100 µM (inactive)	> 100 µM (inactive)	> 100 µM (inactive)	> 100 µM (inactive)	> 100 µM (inactive)	> 100 µM (inactive)	> 100 µM (inactive)	> 100 µM (inactive)	> 100 µM (inactive)	> 100 µM (inactive)
Cc1[nH]n(-c2nc(O)c(-c3ccccc3)c(=O)[nH]2)c(=O)c1CCO	> 100 µM (inactive)		> 100 µM (inactive)	> 100 µM (inactive)	> 100 µM (inactive)	> 100 µM (inactive)	> 100 µM (inactive)	> 100 µM (inactive)	> 100 µM (inactive)	> 100 µM (inactive)	> 100 µM (inactive)	> 100 µM (inactive)	> 100 µM (inactive)	> 100 µM (inactive)	> 100 µM (inactive)		> 100 µM (inactive)	> 100 µM (inactive)	> 100 µM (inactive)
C=C(C)[C@@H]1CC[C@]2(CO)CC[C@]3(C)[C@H](CC[C@@H]4[C@@]5(C)CC[C@H](O)C(C)(C)[C@@H]5CC[C@]43C)[C@@H]12 [BETULIN]	61.4 µM (inactive)	16.7 µM (inactive)	15.3 µM (inactive)	21.5 µM (inactive)	20.6 µM (inactive)	25.6 µM (inactive)	15.8 µM (inactive)			24.8 µM (inactive)	34 µM (inactive)	17.6 µM (inactive)	20.1 µM (inactive)	> 10 µM (inactive)	19.5 µM (inactive)	28.2 µM (inactive)	19.3 µM (inactive)		34.5 µM (inactive)
